Reference: patent publication US20090042725A1, “Fungicidal Mixtures Based on 3,5-Disubstituted N-Biphenyl-Pyrazolcarboxamides” (BASF Aktiengesellschaft, priority 2005, published 2009)

Experiments:
[1] = system: Phakopsora pachyrhizi; assay: Curative activity against soybean rust caused by Phakopsora pachyrhizi; assay type: in vivo; settings: soybean seedlings cultivar Oxford, sprayed 2 days after inoculation, 4 mg/l, rated after 14 days, efficacy in % of untreated control (90% infection), read-out: Observed activity (% infection)
Procedure: (§1) The active compounds, separately or jointly, were prepared as a stock solution comprising 25 mg of active compound which was made up to 10 ml using a mixture of acetone and/or dimethyl sulfoxide and the emulsifier Uniperol® EL (wetting agent having an emulsifying and dispersing action based on ethoxylated alkylphenols) in a ratio by volume of solvent/emulsifier of 99:1. The mixture was then made up to 100 ml with water. This stock solution was diluted with the solvent/emulsifier/water mixture described to give the concentration of active compound stated below.
(§2) Alternatively, the active compounds epoxiconazole and pyraclostrobin were used as a commercial formulation and diluted with water to the stated active compound concentrations.
(§3) The visually determined percentages of infected leaf areas were converted into efficacies in % of the untreated control.
(§4) The efficacy (E) is calculated as follows using Abbot's formula: […]
(§5) The expected efficacies of active compound mixtures were determined using Colby's formula [R. S. Colby, “Calculating synergistic and antagonistic responses of herbicide combinations”, Weeds 15, 20-22 (1967)] and compared with the observed efficacies. […]
Leaves of potted soybean seedlings of the cultivar “Oxford” were inoculated with a spore suspension of soybean rust (Phakopsora pachyrhizi). […] The extent of the rust fungus development on the leaves was then determined

[2] = system: Alternaria solani; assay: Activity against early blight on tomatoes caused by Alternaria solani; assay type: in vivo; settings: tomato plants, sprayed 1 day before infection, rated after 5 days, efficacy in % of untreated control (90% infection), read-out: Observed activity (% infection); for inhibition at 63 µg/mL: 63 mg/l
Procedure: as §1, §2, §3, §4
(§6) α corresponds to the fungicidal infection of the treated plants in % and β corresponds to the fungicidal infection of the untreated (control) plants in %
(§7) An efficacy of 0 means that the infection level of the treated plants corresponds to that of the untreated control plants; an efficacy of 100 means that the treated plants were not infected.
as §5
Leaves of potted tomato plants were sprayed to runoff point with an aqueous suspension having the concentration of active compounds stated below. […] After 5 days, the disease on the untreated, but infected control plants had developed to such an extent that the infection could be determined visually in %.

[3] = system: Puccinia recondite; assay: Protective activity against Puccinia recondite on wheat (brown rust of wheat); assay type: in vivo; settings: wheat seedlings cultivar Kanzler, sprayed 1 day before inoculation, efficacy in % of untreated control (90% infection), read-out: Observed activity (% infection); for inhibition at 4 µg/mL: 4 mg/l; for inhibition at 1 µg/mL: 1 mg/l
Procedure: as §1, §2, §3, §4, §6, §7
The expected efficacies of active compound mixtures were determined using Colby's formula [R. S. Colby, “Calculating synergistic and antagonistic responses of herbicide combinations”, Weeds 15, 20-22 (1967)] and compared with the observed efficacies.
E=x+y−x·y/100 Colby's formula • E expected efficacy, expressed in % of the untreated control, when using the mixture of the active compounds A and B at the concentrations a and b; • x efficacy, expressed in % of the untreated control, when using the active compound A at the concentration a; • y efficacy, expressed in % of the untreated control, when using the active compound B at the concentration b;
Leaves of potted wheat seedlings of the cultivar “Kanzler” were sprayed to runoff point with an aqueous suspension having the concentration of active compound stated below. The next day the treated plants were inoculated with a spore suspension of brown rust of wheat (Puccinia recondite). The plants were then placed in a chamber at high atmospheric humidity (90 to 95%) at 20 to 22° C. for 24 hours. During this time, the spores germinated and the germ tubes penetrated into the leaf tissue. The next day, the test plants were returned to the greenhouse and cultivated at temperatures between 20 and 22° C. and 65 to 70% relative atmospheric humidity for a further 7 days. The extent of the rust fungus development on the leaves was then determined visually.

[4] = system: Botrytis cinerea; assay: Activity against gray mold on bell pepper leaves caused by Botrytis cinerea, 1 day protective application; assay type: in vivo; settings: bell pepper seedlings, sprayed 1 day before inoculation, 4 mg/l, rated after 5 days, efficacy in % of untreated control (100% infection), read-out: Observed activity (% infection)
Procedure: as §1, §2, §3, §4, §6, §7, §5
Bell pepper seedlings of the cultivar “Neusiedler Ideal Elite” were, after 2-3 leaves were well developed, sprayed to runoff point with an aqueous suspension in the active compound concentration stated below. […] After 5 days, the extent of the fungal infection on the leaves could be determined visually in %.

[5] = system: Erysiphe [syn. Blumeria] graminis forma specialis. tritici; assay: Activity against mildew of wheat caused by Erysiphe [syn. Blumeria] graminis forma specialis. tritici; assay type: in vivo; settings: wheat seedlings, sprayed 24 hours before dusting with spores, 1 mg/l, rated after 7 days; efficacy in % of untreated control (90% infection); read-out: Observed activity (% infection)
Procedure: as §1, with “below. […]” for “below.”
as §3, §4, §5
Leaves of potted wheat seedlings were sprayed to runoff point with an aqueous suspension having the active compound concentration stated below. […] After 7 days, the extent of the mildew development was determined visually in % infection of the entire leaf area.

CC1CCN(c2c(-c3c(F)cc(F)cc3F)c(Cl)nc3ncnn23)CC1 [5-chloro-7-(4-methylpiperidin-1-yl)-6-(2,4,6-trifluorophenyl)-[1,2,4]triazolo[1,5-a]pyrimidine]
inhibition at 4 µg/mL [1]: 28%

COc1ccc(C(=CC(=O)N2CCOCC2)c2ccc(Cl)cc2)cc1OC [dimethomorph, 3-(4-chlorophenyl)-3-(3,4-dimethoxyphenyl)-1-morpholin-4-yl-propenone]
inhibition at 63 µg/mL [2]: 0% | inhibition at 4 µg/mL [3]: 5%

Cn1cc(C(=O)Nc2ccccc2-c2cc(Cl)cc(Cl)c2)c(C(F)(F)F)n1 [No. I.1, 1-methyl-3-trifluoromethyl-N-(ortho-(3,5-dichlorophenyl)phenyl)-pyrazole-4-carboxamide]
inhibition at 4 µg/mL [4]: 0% | melting point: 101 to 105 °C | inhibition at 1 µg/mL [3]: 52%

Cn1cc(C(=O)Nc2ccccc2-c2cc(Cl)cc(Cl)c2)c(C(F)F)n1 [No. I.4, N-(3′,5′-dichlorobiphenyl-2-yl)-1-methyl-3-difluoromethyl-1H-pyrazole-4-carboxamide]
inhibition at 16 µg/mL ([2]; 16 mg/l): 44% | inhibition at 1 µg/mL [5]: 0% | inhibition at 1 µg/mL [3]: 56%

COC(=O)N(OC)c1ccccc1COc1ccn(-c2ccc(Cl)cc2)n1 [pyraclostrobin, methyl N-{2-[1-(4-chlorophenyl)-1H-pyrazol-3-yloxymethyl]phenyl}(N-methoxy)carbamate]
inhibition at 4 µg/mL [4]: 0% | inhibition at 1 µg/mL [3]: 0%

Fc1ccc([C@]2(Cn3cncn3)O[C@H]2c2ccccc2Cl)cc1 (racemic) [epoxiconazole, (2RS,3SR)-1-[3-(2-chlorophenyl)-2,3-epoxy-2-(4-fluorophenyl)propyl]-1H-1,2,4-triazole]
inhibition at 4 µg/mL [4]: 10%

COc1cc(C)c(C(=O)c2c(OC)ccc(Br)c2C)c(OC)c1OC [metrafenone, 3′-bromo-2,3,4,6′-tetramethoxy-2′,6-dimethylbenzophenone]
inhibition at 63 µg/mL [2]: 0% | inhibition at 4 µg/mL [3]: 0%
